Entries after “also recorded” stand apart in the source; their conditions may differ. Peptide text beside a SMILES is read from it. * marks the point of attachment. Cbz = O=C(OCc1ccccc1)*
Assays:
Type in all cases: cell-based
[1] = test system: HT-29 colon cancer cell line; experiment: Cell proliferation assay (crystal violet, 590 nm); settings: 10 and 50 μg/ml, after several days of treatment
Experimental: (§1) DLD-1, HCT-116, and HT-29 colon cancer cell lines were obtained from the ATCC collection and were cultured in Dulbecco's Modification of Eagle's Medium supplemented with 10% fetal bovine serum, glutamine, penicillin, and streptomycin. 293 cells stably transfected with COX-2 (293-COX-2) under the control of a ponasterone sensitive promoter were cultured in Dulbecco's Modification of Eagle's Medium supplemented with 10% fetal bovine serum, 400 μg/ml of zeocin, 400 μg/ml of G418, glutamine, penicillin, and streptomycin. For induction of COX-2 protein expression, 293-COX-2 cells were cultured for 48 hours in media supplemented with 1 μg/ml of ponasterone. All cells were cultured at 37° C. in a humidified incubator with a 5% CO2 atmosphere.
(§2) For the cell proliferation assay, cells were dispersed and plated at 40,000 cells/well in 96-well dishes. At various days in culture, the cells were gently washed twice with 100 μl/well of ice-cold blocking buffer (1% radioimmunoassay grade BSA in PBS) and twice with 100 μl/well of ice-cold PBS. The cells were fixed for 10 min in 100% ice-cold methanol (100 μl/well), then allowed to air-dry. The cells were stained with 100μl/well of 0.1% crystal violet in H2O for 10 minutes, then washed gently four times with dd H20 and four times with PBS. The plates were then air-dried completely. The stained cells were then solubilized in 1% sodium deoxycholate, and the plates read at 590 nm in a spectrophotometer. The absorption at 590 nm is proportional to the number of attached cells.

[2] = test system: DLD-1 colon cancer cell line; experiment: Cell proliferation assay (crystal violet, 590 nm); settings: 10 and 50 μg/ml, after several days of treatment
Experimental: as §1, §2

[3] = test system: HCT-116 colon cancer cell line; experiment: Cell proliferation assay (crystal violet, 590 nm); settings: 10 and 50 μg/ml, after several days of treatment
Experimental: as §1, §2

[4] = test system: adherent HT-29 cells; experiment: Apoptosis assay (annexin V-FITC / propidium iodide flow cytometry), adherent cells
Experimental: The data points represent the average percent of annexin V-positive, propidium iodide-negative cells (of the total cells counted) from triplicate experiments. The error bars represent the standard error of the means. […] The results shown are a graphic representation of individual flow cytometry results expressed as the percentage of cells that were annexin V-positive of those that excluded propidium iodide. […] An immunoblot of the lysates for cleaved PARP was performed. Each lane represents equal total protein concentrations. […] The cells were allowed to adhere to plastic dishes for 1 hour after which they were washed gently in PBS and stained with crystal violet. The crystal violet stained cells were solubilized in deoxycholate and the absorbance detected in a spectrophotometer at 590 nm. The adherent cells were expressed as a fraction of the controls Each data point represents the average of triplicate experiments and the error bars the standard errors of the means.
(§3) Single cell suspensions were plated at 100,000 cells per well in 24-well plates in media containing DMSO, BAY 11-7082, BAY 11-7085, or MG-132 for 8-24 hours in an incubator. Alternatively, DMSO, BAY 11-7082, BAY 11-7085, or MG-132 were added to cells that were confluent and adherent for several days. The nonadherent cells were aspirated off with the media and spun for 3 minutes at 2,000 rpm in 15 ml polypropylene tubes. The adherent cells were washed twice with PBS, dispersed in trypsin, and spun down for 3 minutes at 2,000 rpm in 15 ml polypropylene tubes. The nonadherent and adherent cells were resuspended in 1× binding buffer (10 mM HEPES/NaOH, pH 7.4, 140 mM NaCl, and 2.5 mM CaCl2) to a final concentration of 10^6 cells/ml. 100 μl of the cell solution were transferred to a 5 ml culture tube and incubated with 5 μl of annexin V-FITC-conjugated monoclonal antibody (Pharmingen) and 10 μl of propidium iodide (from a 50 μg/ml stock solution made in PBS) in the dark at 25° C. for 15 minutes. 400 μl of binding buffer was added to each tube and the cells were analyzed by flow cytometry immediately. The percent of apoptosis was determined as the percent of annexin V-positive, propidium iodide-negative cells of the total cells counted.

[5] = test system: transiently suspended HT-29 cells; experiment: Apoptosis (annexin V) of transiently suspended cells allowed to readhere; settings: HT-29; various concentrations; 4 h; compared with BAY 11-7085
Experimental: HT-29 cells that were either transiently suspended with trypsin-EDTA or adherent for three days, were treated at time zero with DMSO or 10-100 μM BAY 11-7085. The percent of apoptotic cells was determined using the annexin V flow cytometry assay and graphed versus the dose of BAY 11-7085. […] The cells were fixed and immunostained with an NF-κB p65 subunit monoclonal antibody.
The transiently suspended cells were lysed and allowed to bind to DNA oligonucleotides, containing the NF-κB consensus binding site, that were immobilized to 96-well plates. NF-κB protein bound to the oligonucleotides was detected by an antibody to the p65 subunit that only recognized p65 that is bound to DNA. The positive control was HeLa cells that were stimulated with TNFα A control was performed using excess free NF-κB oligonucleotides (Competitor). […] NF-κB binding activity was determined by the TransAM assay as in FIG. 5A. […] The data shown represent typical results of three separate experiments. […] An immunoblot for COX-2 was performed.
The percentage of apoptotic cells was determined using the annexin V assay. The data points represent the averages of three experiments; bars, ±SE. E. DLD-1 and F. HT-29 cells were transduced with an adenovirus containing the IκB super-repressor construct. After 3 days, the cells were transiently suspended and allowed to readhere in the presence of subapoptotic concentrations of BAY 11-7085 or DMSO (vehicle) for 8 h. The data are expressed as fractions of cells surviving compared with the controls (no adenovirus) and were quantitatively determined by staining the remaining adherent cells with crystal violet.
as §3
Various concentrations of BAY 11-7085 were added to HT-29 cells that were transiently suspended in trypsin-PBS for approximately 15 minutes before replating. The transiently suspended cells were quickly allowed to readhere in order to prevent anoikis. Alternatively, BAY 11-7085 was added to adherent HT-29 cell monolayers.

[6] = test system: cleaved PARP in HT-29 cells; experiment: Immunoblot for cleaved PARP; settings: 20 μM, 8 h
Experimental: The cells were washed twice in ice cold PBS and then lysed in 4° C. lysis buffer (50 mM HEPES, 150 mM NaCl, 1.5 mM MgCl2, 1 mM EGTA, 100 mM NaF, 10 mM Na2PO4, 1 mM Na3VO4, 10% glycerol, 1% Triton X-100, and 1 μg/ml each of aprotinin, leupeptin, chymostatin, pepstatin) and clarified at 12,000 rpm at 4° C. for 15 minutes. The lysates were normalized for total protein concentration. Aliquots of the lysates were then mixed 1:1 in sample buffer (125 mM Tris-HCl (pH 6.8), 20% glycerol. 4% sodium dodecyl sulfate, 2% beta-mercaptoethanol, 10 μg/ml bromophenol blue) and boiled for 3 minutes. The samples were loaded onto SDS-PAGE gels (7.5 or 10% acrylamide). […]
(§4) For immunodetection, the blocked blots were probed with primary antibody for 2 hours at 4° C. on a rocker. […] Alkaline phosphatase was detected by a colorimetric reaction using a BCIP (5-Bromo-4-Chloro-3-Indolyl phosphate)/NBT (Nitroblue tetrazolium) kit (Zymed).
It was confirmed in HT-29 cells that were treated with increasing concentrations of BAY 11-7085 for 24 h. After separating the HT-29 cells that remained adherent and those that became nonadherent after BAY 11-7085 treatment, the percentage of apoptotic cells was determined for each group. […]

[7] = test system: cleaved PARP in HCT-116 cells; experiment: Immunoblot for cleaved PARP; settings: 20 μM, 24 hours
Experimental: The data points represent the average percent of annexin V-positive, propidium iodide-negative cells (of the total cells counted) from triplicate experiments. The error bars represent the standard error of the means. […] The results shown are a graphic representation of individual flow cytometry results expressed as the percentage of cells that were annexin V-positive of those that excluded propidium iodide. […] An immunoblot of the lysates for cleaved PARP was performed. Each lane represents equal total protein concentrations. […] The cells were allowed to adhere to plastic dishes for 1 hour after which they were washed gently in PBS and stained with crystal violet. The crystal violet stained cells were solubilized in deoxycholate and the absorbance detected in a spectrophotometer at 590 nm. The adherent cells were expressed as a fraction of the controls Each data point represents the average of triplicate experiments and the error bars the standard errors of the means. […]
as §4

| Molecule | inhibition of colon cancer cell proliferation [1] | inhibition of colon cancer cell proliferation [2] | inhibition of colon cancer cell proliferation [3] | effect of cA2 pretreatment on BAY 11-7085-induced apoptosis ([4]; HT-29, 50 μg/ml cA2 for 48 hours, then 20 μM BAY 11-7085 for 24 hours) | induction of apoptosis during readhesion [5] | cleaved PARP in cells that remained adherent [6] | cleaved PARP in the nonadherent cells [6] | cleaved PARP in cells that remained adherent [7] | cleaved PARP in the non-adherent cells [7] | level of apoptosis (annexin V-positive, propidium iodide-negative cells) ([4]; adherent HT-29, doses up to 20 μM (MG-132 20 μM), 24 hours) |
| --- | --- | --- | --- | --- | --- | --- | --- | --- | --- | --- |
| cA2: antagonistic and chimeric TNFα monoclonal antibody purchased from the clinical pharmacy; inhibits TNFα binding to TNFα receptors | significant inhibition | significant inhibition | significant inhibition | did not diminish BAY 11-7085-induced apoptosis |  |  |  |  |  |  |
| S=C(S)N1CCCC1 [PDTC, pyrrolidine dithiocarbamate] |  |  |  |  | caused apoptosis of HT-29 cells during readhesion |  |  |  |  |  |
| CC(C)C[C@@H](C=O)NC(=O)[C@H](CC(C)C)NC(=O)[C@H](CC(C)C)NC(=O)OCc1ccccc1 [MG-132, N-[(phenylmethoxy)carbonyl]-L-leucyl-N-[(1S)-1-formyl-3-methylbutyl]-L-leucinamide] (Cbz-Leu-Leu-Leu-aldehyde) |  |  |  |  | more potently induced apoptosis | only a small increase in cleaved PARP | large increase in cleaved PARP | only a small increase in cleaved PARP | large increase in cleaved PARP | relatively greater for MG-132 than BAY 11-7085; also recorded: caused a greater increase in apoptosis |
